# Literature values as cited in US6406529B1, “Method of reducing dentin sensitivity and compositions therefor” (MCG Research Institute, priority 1998, dated 2002).
# Settings: 3% w/v applied to dentin; in vitro and in vivo
smiles,measurement,value
O=C([O-])C(=O)O.[K+] [monopotassium-monohydrogen oxalate],Hydraulic conductance of dentin,reduced
